Assay results taken from patent US20250326753A1, “DUAL CXCR4-BTK INHIBITORS” (X4 Pharmaceuticals, Inc., priority 2022, published 2025).
Read-outs that look alike come from different tables or passages of the source.

Key:
[1] = tested on: 340 wild-type protein kinases; assay: PanQinase wild-type kinase panel, selectivity score; type: biochemical; conditions: 1 μM; share of kinases with residual activity <50%; 340 wild-type protein kinase assays
Protocol: Screening procedures were performed in accordance with the company's on-line protocol [accessed on-line Mar.
The selectivity score for a particular compound at a particular concentration was calculated by using the following formula: Selectivity Score=(count of data points <50%)/(total number of data points).

[2] = tested on: U-87 MG; assay: Glioblastoma multiforme cell proliferation assay (CellTiter Glo), U-87 MG; type: cell-based; conditions: Homo sapiens; for Emax: read-out: GBM-U87MG Cell Proliferation Emax %
Protocol: (§1) Inhibition of glioblastoma multiforme cell proliferation by compounds of the present invention was evaluated in U-87 MG (ATCC; Cat. No. HTB-14; Lot. No. 5018014) and T98G (ATCC; Cat. No. CRL-1690; Lot. No. 58267513) cell lines. These are adherent cell lines isolated from glioblastoma multiforme/malignant glioma, which express both CXCR4 and BTK (see Zhou et al. 2002 and Yue et al. 2017).
(§2) Cell viability was analyzed with the CellTiter Glo Cell assay kit ([…], Cat. No. G7573, Lot. No. 0000474103), according to the manufacturer's instruction.
(§3) U-87 MG and T98G cells were seeded onto 384-well opaque-walled clear bottom plates (Corning, Cat. No. 3765, Lot. No. 34319047) in EMEM (Invitrogen, Cat. No. 11095-080; Lot. No. 2276656) supplemented with 10% FBS (Invitrogen, Cat. No. 10099-141C, Lot. No. 2145169CP), at a seeding density of 1000 or 1200 cells per well, respectively, and then incubated in 5% CO2 at 37° C. overnight.
(§4) Compounds were prepared as stock solutions of 30 mM in DMSO (Sigma, Cat. No. 276855-1L. Lot. No. SHBL5610). Compounds were added to the cells, with 10 dose points in duplicates, in 3-fold dilution from a top concentration of 30 μM (final DMSO concentration […]), and incubated in 5% CO2 at 37° C. for 96 hr.
(§5) The 384-well plates were equilibrated at room temperature for approximately 30 min. 25 μl of CellTiter-Glo® Reagent was added to each well and mixed for 10 min on an orbital shaker to induce cell lysis. The 384-well plates were incubated at room temperature for 10 min to stabilize luminescent signal. Luminescence was detected on a PerkinElmer EnVision Multimode Plate Reader (measurement time 0.1s) as relative luminescence units (RLU).

[3] = tested on: T98G; assay: Glioblastoma multiforme cell proliferation assay (CellTiter Glo), T98G; type: cell-based; conditions: Homo sapiens; for Emax: read-out: GBM-T-98G Cell Proliferation Emax %
Protocol: as §1, §2, §3, §4, §5

[4] = tested on: GBM-U251MG; assay: GBM cell proliferation, U251MG (cell-based cancer efficacy assays); conditions: Homo sapiens, U-251; Table 6B
[5] = tested on: MWCL-1; assay: Apoptosis assay (annexin V flow cytometry) in Waldenstrom's Macroglobulinemia cells; type: cell-based, human; conditions: Homo sapiens; numeric; read-out: Apoptosis IC50 (μM) in single-mutant WM Cell Lines (MWCL-1)
Protocol: Waldenström's Macroglobulinemia cells (MWCL-1) and the bone marrow stromal cells (BMSCs; HS-27A) were used in this study. The MWCL-1 is a lymphoplasmacytic lymphoma established from the bone marrow aspirate of a patient diagnosed with Waldenström's Macroglobulinemia. It was provided by Dr Stephen M. Ansell (MAYO file number 2021-121; 200 First Street SW, Rochester, Minnesota). This cell line was cultured in RPMI-1640 (Fisher Scientific) containing 10% fetal bovine serum (FBS) (Sigma Aldrich, St Louis, MO), 100U/ml of Penicillin-Streptomycin (Gibco™, ThermoFisher Scientific). The HS-27A bone marrow stromal cells were obtained from ATCC. They were maintained in RPMI 1640 (Fisher Scientific) supplemented with 100U/ml of Penicillin-Streptomycin (Gibco™, ThermoFisher Scientific) and 10% FBS (TakaraBio). Cells were cultured in a 37° C. tissue culture CO2 incubator.
For studies with compounds using a co-culture system of MWCL-1 and BMSCs, BMSCs were cultured in a 96-, 48- or 24-well plates and cultured until the 90% confluence was reached. […] After 1 hour, the MWCL-Icells were added to the BMSC to create a co-culture system. The cells were co-incubated for 72 hours. After incubation time, cell viability, apoptosis, and IgM release were measured.
For studying the effect of compounds on inducing apoptosis of Waldenström Macroglobulinemia cells (MWCL-1). Cells were washed with PBS, resuspended in Annexin V binding buffer (Biolegend), and stained with Alexa Fluor 647 annexin V (Biolegend), Propidium Iodide (BD Pharmigen), and CD45 antibody (Biolegend) for 15 minutes at RT and analyzed by flow cytometry. Data were collected on an CytoFLEX S Flow Cytometer (Beckman Coulter) and analysed with FCS Express Software (De Novo Software). Annexin V positive cells were considered apoptotic.

[6] = molecular target: T1, CDK13/CycK (Homo sapiens, UniProt Q14004); assay: PanQinase kinase panel: CDK13/CycK; type: biochemical; conditions: read-out: INHIBITORY EFFECT @ 1 uM: CDK13/CycK
T1 construct: purchased Reaction Biology Europe GmbH
Protocol: Screening procedures were performed in accordance with the company's on-line protocol [accessed on-line Mar. 25, 2022 at reaction biology.com/assay-protocol-panqinase]. Inhibitory activity of 50% or greater at concentrations of 1 μM are highlighted for all five compounds tested.
For each kinase, the median value of the cpm of three wells was defined as “low control” (n=3). This value reflects unspecific binding of radioactivity to the plate in the absence of a protein kinase but in the presence of the substrate. Additionally, for each kinase the median value of the cpm of three other wells was taken as the “high control,” i.e. full activity in the absence of any inhibitor (n=3). The difference between high and low control of each enzyme was taken as 100% activity.
As part of the data evaluation the low control of each kinase was subtracted from the high control value as well as from their corresponding “compound values”. The residual activity (in %) for each compound well was calculated by using the following formula: Res. Activity (%)=100×[(signal of compound−low control)/(high control−low control)].

[7] = tested on: WM patients; conditions: cited from earlier work
[8] = tested on: Ramos cell line; conditions: read-out: IC50, inhibition of cell proliferation, Chu et al. 2018; cited from earlier work

T1 sequence (Q14004 whole entry): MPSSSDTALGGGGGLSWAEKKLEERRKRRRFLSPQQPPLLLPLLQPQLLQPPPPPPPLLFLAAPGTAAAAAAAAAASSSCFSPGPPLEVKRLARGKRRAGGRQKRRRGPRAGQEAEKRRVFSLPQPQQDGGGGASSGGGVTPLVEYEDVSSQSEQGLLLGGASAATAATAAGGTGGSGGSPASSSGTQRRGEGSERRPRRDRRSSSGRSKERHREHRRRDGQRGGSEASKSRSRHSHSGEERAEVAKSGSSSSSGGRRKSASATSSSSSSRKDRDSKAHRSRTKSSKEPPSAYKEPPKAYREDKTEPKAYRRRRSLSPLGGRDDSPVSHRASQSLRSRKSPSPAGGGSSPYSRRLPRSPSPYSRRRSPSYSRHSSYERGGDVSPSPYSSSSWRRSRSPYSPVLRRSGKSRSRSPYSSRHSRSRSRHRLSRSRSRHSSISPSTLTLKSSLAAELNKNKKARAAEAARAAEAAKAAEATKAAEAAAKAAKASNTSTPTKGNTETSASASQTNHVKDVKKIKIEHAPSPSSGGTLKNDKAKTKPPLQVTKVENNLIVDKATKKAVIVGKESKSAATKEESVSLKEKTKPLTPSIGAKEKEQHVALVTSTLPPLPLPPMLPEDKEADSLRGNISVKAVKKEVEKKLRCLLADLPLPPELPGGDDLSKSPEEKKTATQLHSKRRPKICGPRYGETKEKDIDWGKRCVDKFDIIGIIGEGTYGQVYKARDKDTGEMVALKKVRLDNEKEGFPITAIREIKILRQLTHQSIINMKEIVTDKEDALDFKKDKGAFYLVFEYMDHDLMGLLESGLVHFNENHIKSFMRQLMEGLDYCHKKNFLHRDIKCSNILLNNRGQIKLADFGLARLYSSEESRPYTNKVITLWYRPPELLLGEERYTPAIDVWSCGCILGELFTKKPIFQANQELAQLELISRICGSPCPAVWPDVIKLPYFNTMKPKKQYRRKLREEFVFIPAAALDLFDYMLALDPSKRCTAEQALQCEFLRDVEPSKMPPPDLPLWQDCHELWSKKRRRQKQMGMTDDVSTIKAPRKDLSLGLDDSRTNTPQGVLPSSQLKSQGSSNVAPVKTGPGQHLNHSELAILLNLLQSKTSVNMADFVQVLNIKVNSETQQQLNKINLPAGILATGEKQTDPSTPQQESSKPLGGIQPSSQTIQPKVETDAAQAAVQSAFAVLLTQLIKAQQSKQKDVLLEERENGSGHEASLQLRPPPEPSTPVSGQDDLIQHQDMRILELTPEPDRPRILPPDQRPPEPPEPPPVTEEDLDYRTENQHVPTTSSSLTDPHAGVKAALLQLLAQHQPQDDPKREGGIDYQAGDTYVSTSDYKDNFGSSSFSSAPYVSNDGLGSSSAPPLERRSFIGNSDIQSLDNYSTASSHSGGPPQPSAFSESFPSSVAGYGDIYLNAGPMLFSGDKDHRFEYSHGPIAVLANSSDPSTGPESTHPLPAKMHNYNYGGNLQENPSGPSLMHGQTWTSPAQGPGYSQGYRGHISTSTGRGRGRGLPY
T1 sequence (O75909 whole entry partner): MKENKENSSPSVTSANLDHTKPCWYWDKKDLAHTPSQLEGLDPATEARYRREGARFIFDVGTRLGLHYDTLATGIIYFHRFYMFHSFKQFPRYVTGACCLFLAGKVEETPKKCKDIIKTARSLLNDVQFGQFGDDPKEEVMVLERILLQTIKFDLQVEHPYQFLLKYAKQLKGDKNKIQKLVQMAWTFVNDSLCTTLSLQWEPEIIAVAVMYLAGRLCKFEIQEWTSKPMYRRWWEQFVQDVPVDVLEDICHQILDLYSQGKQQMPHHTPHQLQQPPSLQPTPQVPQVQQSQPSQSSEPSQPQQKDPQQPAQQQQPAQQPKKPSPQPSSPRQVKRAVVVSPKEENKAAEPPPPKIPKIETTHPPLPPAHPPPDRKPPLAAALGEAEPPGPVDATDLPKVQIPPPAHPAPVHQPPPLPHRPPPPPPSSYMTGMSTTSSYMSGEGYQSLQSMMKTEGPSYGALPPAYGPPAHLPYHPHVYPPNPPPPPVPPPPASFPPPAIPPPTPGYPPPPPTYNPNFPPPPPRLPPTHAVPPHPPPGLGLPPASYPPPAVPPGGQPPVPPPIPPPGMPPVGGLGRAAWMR

| SMILES | Selectivity Score [1] | Emax ([2]; Table 6B) | IC50 ([2]; Table 6B, read-out: GBM-U87MG Cell Proliferation IC50) | Emax ([3]; Table 6B) | IC50 ([3]; Table 6B, read-out: GBM-T-98G Cell Proliferation IC50) | Emax [4] | IC50 [4] | IC50 ([2]; 96 h, read-out: U-87 MG IC50 (uM)) | Emax [2] | IC50 ([2]; read-out: GBM-U87MG Cell Proliferation IC50 uM) | IC50 ([3]; 96 h, read-out: T98G IC50 (uM)) | Emax [3] | IC50 ([3]; read-out: GBM-T-98G Cell Proliferation IC50 uM) | IC50 [5] | inhibition at 1 µM [6] | VGPR ([7]; WM patients with MYD88 L265P CXCR4 WT) | VGPR ([7]; WM patients with double mutations MYD88 L265P CXCR4 WHIM) | IC50 [8] |
| --- | --- | --- | --- | --- | --- | --- | --- | --- | --- | --- | --- | --- | --- | --- | --- | --- | --- | --- |
| Cc1cc(-c2ccnc(Nc3cnn(C)c3)n2)ccc1CNC(=O)N1CC(OC(C)C)C1 [BIIB-068, reference compound] | 0.009 |  |  |  |  |  |  |  |  |  |  |  |  |  |  |  |  |  |
| Cc1cccnc1[C@@H]1CCC[C@H](c2cn3c(N4CCN(C)CC4)cccc3n2)N1C [Compound I-19] |  | 19% | 6.47 µM | 16% | > 30 µM | 6% | 1.67 µM |  |  |  |  |  |  |  |  |  |  |  |
| C=CC(=O)N1CCC[C@@H](n2nc(-c3ccc(Oc4ccccc4)cc3)c3c(N)ncnc32)C1 [Ibrutinib, ibrutinib, reference compound] |  |  |  |  |  | 57% | 0.31 µM | > 30 µM | 52% | 28.5 µM | > 30 µM | 73% | 24.4 µM | 4.2 µM | < 50% | 44.4% | 9.5% | 0.87 µM |
